Reference: patent publication US4727064A, “Pharmaceutical preparations containing cyclodextrin derivatives” (priority 1985, dated 1988)
≈ marks a conversion by molar mass, not a printed value. Structures can show the parent of a compound that is named as a salt. Where two headings read alike, the source gives them in different places.

Experiments:
physchem = details: for solubility: water
Experimental: The solutions of solubilizer in water were saturated by stirring with excess of drug at room temperature for about 24 hours. The resulting suspensions were clarified either by filtration through a sintered glass filter or by centrifugation. Concentration of hormones in clarified solutions was measured spectrophotometrically. In these experiments drugs were solubilized with cyclodextrin derivatives with constant degrees of substitution and which are given in the footnote to Table 1.

[1] = Table 1, water, cited from earlier work
[2] = hydroxypropyl-β-cyclodextrin in water, Solubility in solubilizer solution
[3] = data from K. Uekama, Pharmacology International, 61-65 (1985)
[4] = 50% aqueous carboxamido-β-cyclodextrin, Solubilities of steroids in 50% aqueous solutions of substituted cyclodextrins, Table 3, carboxamido-β-cyclodextrin
[5] = 50% aqueous carboxymethyl-β-cyclodextrin, Solubilities of steroids in 50% aqueous solutions of substituted cyclodextrins, Table 3, carboxymethyl-β-cyclodextrin
[6] = 50% aqueous diethylaminoethyl-β-cyclodextrin, Solubilities of steroids in 50% aqueous solutions of substituted cyclodextrins, Table 3, diethylaminoethyl-β-cyclodextrin
[7] = 50% aqueous hydroxypropyl-beta-cyclodextrin, Solubilities of steroids in 50% aqueous solutions of hydroxypropyl-β-cyclodextrin, Table 2, d.s. 4.7
[8] = 50% aqueous hydroxypropyl-beta-cyclodextrin, Solubilities of steroids in 50% aqueous solutions of hydroxypropyl-β-cyclodextrin, Table 2, d.s. 5.7
[9] = 50% aqueous hydroxypropyl-beta-cyclodextrin, Solubilities of steroids in 50% aqueous solutions of hydroxypropyl-β-cyclodextrin, Table 2, d.s. 7.0
[10] = 50% aqueous hydroxypropyl-beta-cyclodextrin, Solubilities of steroids in 50% aqueous solutions of hydroxypropyl-β-cyclodextrin, Table 2, d.s. 14
[11] = hydroxypropyl-β-cyclodextrin in water, Solubility in solubilizer solution, Table 1, hydroxypropyl-β-cyclodextrin in water, degree of substitution 6-7
[12] = data from J. Brotherton, Sex Hormone Pharmacology (1976), p. 36
[13] = hydroxypropyl-β-cyclodextrin in water, 24 h

Structure (SMILES) | solubility at 24 h (physchem; [2]) [mg/mL] | solubility at 24 h (physchem; [11]) [mg/mL] | solubility (physchem) [mg/mL] | also measured
Nc1nc2c(ncn2COCCO)c(=O)[nH]1 [acyclovir] | 2.5 (≈ 11.1 mM) | – | – | Solubility in water (physchem): insoluble
CC(=O)S[C@@H]1CC2=CC(=O)CC[C@]2(C)[C@H]2CC[C@@]3(C)[C@@H](CC[C@@]34CCC(=O)O4)[C@H]12 [spironolactone] | 42 (≈ 101 mM) | – | – | Solubility in water [1, 3]: 0.03 mg/mL (≈ 0.072 mM)
CC(=O)[C@H]1CC[C@H]2[C@@H]3CCC4=CC(=O)CC[C@]4(C)[C@H]3CC[C@]12C [progesterone] | – | 34 (≈ 108 mM) | – | solubility at 24 h (physchem; [4]): 38 mg/mL (≈ 121 mM); solubility at 24 h (physchem; [5]): 14 mg/mL (≈ 44.5 mM); solubility at 24 h (physchem; [6]): 18 mg/mL (≈ 57.2 mM); solubility at 24 h (physchem; [7]): 30 mg/mL (≈ 95.4 mM); solubility at 24 h (physchem; [8]): 44 mg/mL (≈ 140 mM); solubility at 24 h (physchem; [9]): 35 mg/mL (≈ 111 mM); solubility at 24 h (physchem; [10]): 23 mg/mL (≈ 73.1 mM); Solubility in water [1, 12]: 0.015 mg/mL (≈ 0.0477 mM)
CC1=C(/C=C/C(C)=C/C=C/C(C)=C/C(=O)O)C(C)(C)CCC1 [retinoic acid, choline salt of all trans] | – | – | – | Solubility in solubilizer solution (physchem; [13]): 18.8 mg/mL
NS(=O)(=O)c1cc(C2(O)NC(=O)c3ccccc32)ccc1Cl (stereo not shown) [chlorthalidone] | 10.5 (≈ 31 mM) | – | 0.12 (≈ 0.354 mM) | –
NS(=O)(=O)c1cc2c(cc1C(F)(F)F)NCNS2(=O)=O [hydroflumethiazide] | 9.3 (≈ 28.1 mM) | – | 0.3 (≈ 0.906 mM) | –
C#C[C@]1(O)CC[C@H]2[C@@H]3CCc4cc(OC)ccc4[C@H]3CC[C@@]21C [ethinylestradiol-3-methyl ether] | 27 (≈ 87 mM) | – | < 1.5 | –
C[C@@H]1C[C@H]2[C@@H]3CCC4=CC(=O)C=C[C@]4(C)[C@@]3(F)[C@@H](O)C[C@]2(C)[C@@]1(O)C(=O)CO [dexamethasone] | – | 24 (≈ 61.2 mM) | 0.1 (≈ 0.255 mM) | –
C[C@]12CC[C@H]3[C@@H](CCC4=CC(=O)CC[C@@]43C)[C@@H]1CC[C@@H]2O [testosterone] | – | 38 (≈ 132 mM) | – | solubility at 24 h (physchem; [4]): 24 mg/mL (≈ 83.2 mM); solubility at 24 h (physchem; [5]): 24 mg/mL (≈ 83.2 mM); solubility at 24 h (physchem; [6]): 9 mg/mL (≈ 31.2 mM); solubility at 24 h (physchem; [7]): 56 mg/mL (≈ 194 mM); solubility at 24 h (physchem; [8]): 62 mg/mL (≈ 215 mM); solubility at 24 h (physchem; [9]): 40 mg/mL (≈ 139 mM); solubility at 24 h (physchem; [10]): 23 mg/mL (≈ 79.7 mM); Solubility in water [1, 12]: 0.026 mg/mL (≈ 0.0901 mM)
C[C@]12CCC(=O)C=C1CC[C@@H]1[C@@H]2CC[C@@]2(C)[C@H]1CC[C@]2(C)O [17-methyltestosterone] | – | 39 (≈ 129 mM) | < 0.17 | –
CC1=C(/C=C/C(C)=C/C=C/C(C)=C/C(=O)O)C(C)(C)CCC1 [retinoic acid, all trans] | – | – | < 0.07 | Solubility in solubilizer solution (physchem; [13]): 0.8 mg/mL (≈ 2.66 mM)
CC(C)NNC(=O)c1ccncc1 [iproniazid phosphate] | 95 | – | 30 | –
O=[N+]([O-])OCC(CO[N+](=O)[O-])O[N+](=O)[O-] [nitroglycerin] | – | 10.4 (≈ 45.8 mM) | 1.25 (≈ 5.5 mM) | –
C#C[C@]1(O)CC[C@H]2[C@@H]3CCC4=CC(=O)CC[C@]4(C)[C@H]3CC[C@@]21C [ethisterone] | – | 0.5 (≈ 1.6 mM) | < 0.2 | –
CN1CCc2cccc3c2[C@H]1Cc1ccc(O)c(O)c1-3 [apomorphine] | 116 (≈ 434 mM) | – | 20 (≈ 74.8 mM) | –
CC1OC(OC2CC(O)C3(CO)C4C(O)CC5(C)C(C6=CC(=O)OC6)CCC5(O)C4CCC3(O)C2)C(O)C(O)C1O (stereo not shown) [oubain] | – | 80 (≈ 137 mM) | 13 (≈ 22.2 mM) | –
CC1=C(/C=C/C(C)=C/C=C/C(C)=C/C=O)C(C)(C)CCC1 [retinal] | 2.6 (≈ 9.14 mM) | – | < 0.07 | –
C[C@H]1O[C@@H](O[C@H]2[C@@H](O)C[C@H](O[C@H]3[C@@H](O)C[C@H](O[C@H]4CC[C@@]5(C)[C@H](CC[C@@H]6[C@@H]5C[C@@H](O)[C@]5(C)[C@@H](C7=CC(=O)OC7)CC[C@]65O)C4)O[C@@H]3C)O[C@@H]2C)C[C@H](O)[C@@H]1O [digoxin] | – | 45 (≈ 57.6 mM) | – | Solubility in water [1, 3]: 0.07 mg/mL (≈ 0.0896 mM)
CC(=O)Nc1ccc(O)cc1 [acetamidophen] | – | 67 (≈ 443 mM) | 11 (≈ 72.8 mM) | –
Cn1c(=O)c2[nH]cnc2n(C)c1=O [theophylline] | – | 11 (≈ 61.1 mM) | 8.3 (≈ 46.1 mM) | –
Cc1cc(C(C)(C)C)c(O)c(C(C)(C)C)c1 [butylated hydroxytoluene] | – | 3 (≈ 13.6 mM) | – | Solubility in water (physchem; Table 1, water): insoluble; solubility at 24 h (physchem; hydroxypropyl-α-cyclodextrin in water, Solubility in solubilizer solution, Table 1, hydroxypropyl-α-cyclodextrin in water, degree of substitution 6-7): 0.3 mg/mL (≈ 1.36 mM); solubility at 24 h (physchem; hydroxypropyl-γ-cyclodextrin in water, Solubility in solubilizer solution, Table 1, hydroxypropyl-γ-cyclodextrin in water, degree of substitution 6-7): 0.2 mg/mL (≈ 0.908 mM)
CC1=C(/C=C/C(C)=C/C=C/C(C)=C/C(=O)O)C(C)(C)CCC1 [retinoic acid, ethanolamine salt of all trans] | – | – | – | solubility at 24 h (physchem; 40% hydroxypropyl-β-cyclodextrin, 1% ethanolamine, Solubility in solubilizer solution): 28.4 mg/mL
COc1ccc2c(c1)c(CC(=O)O)c(C)n2C(=O)c1ccc(Cl)cc1 [indomethacin] | – | 4.2 (≈ 11.7 mM) | – | Solubility in water [1, 3]: 0.02 mg/mL (≈ 0.0559 mM)
Cl.Clc1cccc(Cl)c1NC1=NCCN1 [cloridine hydrochloride] | – | – | – | Solubility in solubilizer solution (physchem; Table 1, hydroxypropyl-β-cyclodextrin in water, degree of substitution 6-7, 1440 min): 83.0 mg/mL
C[C@]12CC[C@@H]3c4ccc(O)cc4CC[C@H]3[C@@H]1C[C@@H](O)[C@@H]2O [estriol] | – | 41 (≈ 142 mM) | < 1.3 | –
C=C1CC[C@H](O)C/C1=C/C=C1\CCC[C@]2(C)[C@@H]([C@H](C)CCCC(C)C)CC[C@@H]12 [cholecalciferol] | – | 10 (≈ 26 mM) | < 0.23 | –
CC1=C(/C=C/C(C)=C/C=C/C(C)=C/CO)C(C)(C)CCC1 [retinol] | 5.5 (≈ 19.2 mM) | – | < 0.1 | –
O=C1NC(=O)C(c2ccccc2)(c2ccccc2)N1 [diphenylhydantoin] | – | 1.7 (≈ 6.74 mM) | – | Solubility in water [1, 3]: 0.03 mg/mL (≈ 0.119 mM)
CC1=C(/C=C/C(C)=C/C=C/C(C)=C/C(=O)O)C(C)(C)CCC1 [retinoic acid, sodium salt of all trans] | – | – | – | Solubility in solubilizer solution (physchem; [13]): 1.6 mg/mL
